The text below walks through data of the Kinase Knowledgebase extract (Sharma et al. 2016).

Each structure is given as a SMILES string.

One assay deals with PIK3CA (human) (UniProt P42336). As to the kind of experiment: Assessment of PIK3CA Kinase Activity.
The target in a further assay is PIK3CD (Human) (UniProt O00329). As to the kind of experiment: Assessment of PIK3CD Kinase Activity.
A further assay addresses PIK3CG (human) (UniProt P48736). As to the kind of experiment: Assessment of PIK3CG Kinase Activity.
A further assay concerns the target PIK3CB (Human) (UniProt P42338). As to the kind of experiment: Assessment of PIK3CB Kinase Activity.

Chain of PIK3CA (human) (P42336 whole entry, looked up): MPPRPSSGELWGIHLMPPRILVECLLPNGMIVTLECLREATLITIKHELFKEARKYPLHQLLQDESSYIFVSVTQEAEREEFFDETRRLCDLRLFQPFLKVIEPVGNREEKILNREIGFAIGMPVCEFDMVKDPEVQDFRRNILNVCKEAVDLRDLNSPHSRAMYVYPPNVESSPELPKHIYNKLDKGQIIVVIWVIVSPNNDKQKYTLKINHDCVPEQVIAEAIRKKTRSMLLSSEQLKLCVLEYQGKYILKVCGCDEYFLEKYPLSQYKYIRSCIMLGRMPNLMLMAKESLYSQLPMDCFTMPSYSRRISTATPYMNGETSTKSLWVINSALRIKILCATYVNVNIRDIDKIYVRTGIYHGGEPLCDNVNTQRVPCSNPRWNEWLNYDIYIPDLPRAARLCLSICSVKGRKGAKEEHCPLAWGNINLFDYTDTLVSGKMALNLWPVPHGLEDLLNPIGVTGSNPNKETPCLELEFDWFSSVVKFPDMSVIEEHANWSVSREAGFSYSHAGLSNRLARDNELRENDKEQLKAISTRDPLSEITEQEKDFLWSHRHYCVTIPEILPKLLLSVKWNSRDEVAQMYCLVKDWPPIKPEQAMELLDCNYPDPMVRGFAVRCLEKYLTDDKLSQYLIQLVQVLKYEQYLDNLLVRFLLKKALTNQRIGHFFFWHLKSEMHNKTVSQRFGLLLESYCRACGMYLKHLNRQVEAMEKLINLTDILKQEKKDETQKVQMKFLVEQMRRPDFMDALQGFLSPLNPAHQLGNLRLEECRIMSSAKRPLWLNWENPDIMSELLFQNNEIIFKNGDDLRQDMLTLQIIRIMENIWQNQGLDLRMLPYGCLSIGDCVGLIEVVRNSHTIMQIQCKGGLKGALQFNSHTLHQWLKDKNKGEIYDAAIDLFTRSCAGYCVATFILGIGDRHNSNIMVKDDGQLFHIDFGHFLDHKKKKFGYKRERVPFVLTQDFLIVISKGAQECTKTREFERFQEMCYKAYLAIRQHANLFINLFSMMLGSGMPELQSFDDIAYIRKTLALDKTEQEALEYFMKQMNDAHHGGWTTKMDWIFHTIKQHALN
Chain of PIK3CD (Human) (O00329 whole entry, looked up): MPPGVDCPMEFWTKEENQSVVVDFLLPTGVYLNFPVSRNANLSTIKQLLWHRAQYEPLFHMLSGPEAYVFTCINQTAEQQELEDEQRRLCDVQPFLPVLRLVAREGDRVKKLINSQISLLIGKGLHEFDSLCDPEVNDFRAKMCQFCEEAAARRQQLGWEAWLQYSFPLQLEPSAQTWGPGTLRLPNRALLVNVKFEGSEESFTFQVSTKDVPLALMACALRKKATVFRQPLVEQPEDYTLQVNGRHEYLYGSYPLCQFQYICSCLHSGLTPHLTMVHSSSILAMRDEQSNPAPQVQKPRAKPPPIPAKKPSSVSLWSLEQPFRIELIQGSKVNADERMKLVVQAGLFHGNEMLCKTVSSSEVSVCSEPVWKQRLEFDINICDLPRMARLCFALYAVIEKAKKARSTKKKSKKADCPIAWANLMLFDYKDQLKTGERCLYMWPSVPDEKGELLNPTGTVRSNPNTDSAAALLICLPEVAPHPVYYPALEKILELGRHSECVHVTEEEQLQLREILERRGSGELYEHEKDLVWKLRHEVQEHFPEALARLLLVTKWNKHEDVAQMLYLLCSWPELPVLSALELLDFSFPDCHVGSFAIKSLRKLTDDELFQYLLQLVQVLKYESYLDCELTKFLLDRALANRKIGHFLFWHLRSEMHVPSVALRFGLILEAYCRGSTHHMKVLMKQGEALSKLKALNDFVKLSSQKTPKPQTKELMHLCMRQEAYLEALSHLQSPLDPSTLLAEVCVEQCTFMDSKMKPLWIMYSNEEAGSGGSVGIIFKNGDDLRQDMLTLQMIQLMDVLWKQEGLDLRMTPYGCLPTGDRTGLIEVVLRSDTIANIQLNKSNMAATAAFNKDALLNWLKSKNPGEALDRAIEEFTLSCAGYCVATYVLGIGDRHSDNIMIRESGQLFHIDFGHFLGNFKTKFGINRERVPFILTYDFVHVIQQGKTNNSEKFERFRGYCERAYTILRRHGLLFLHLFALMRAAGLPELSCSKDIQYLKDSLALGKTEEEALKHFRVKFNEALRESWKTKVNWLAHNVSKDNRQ
Chain of PIK3CB (Human) (P42338 whole entry, looked up): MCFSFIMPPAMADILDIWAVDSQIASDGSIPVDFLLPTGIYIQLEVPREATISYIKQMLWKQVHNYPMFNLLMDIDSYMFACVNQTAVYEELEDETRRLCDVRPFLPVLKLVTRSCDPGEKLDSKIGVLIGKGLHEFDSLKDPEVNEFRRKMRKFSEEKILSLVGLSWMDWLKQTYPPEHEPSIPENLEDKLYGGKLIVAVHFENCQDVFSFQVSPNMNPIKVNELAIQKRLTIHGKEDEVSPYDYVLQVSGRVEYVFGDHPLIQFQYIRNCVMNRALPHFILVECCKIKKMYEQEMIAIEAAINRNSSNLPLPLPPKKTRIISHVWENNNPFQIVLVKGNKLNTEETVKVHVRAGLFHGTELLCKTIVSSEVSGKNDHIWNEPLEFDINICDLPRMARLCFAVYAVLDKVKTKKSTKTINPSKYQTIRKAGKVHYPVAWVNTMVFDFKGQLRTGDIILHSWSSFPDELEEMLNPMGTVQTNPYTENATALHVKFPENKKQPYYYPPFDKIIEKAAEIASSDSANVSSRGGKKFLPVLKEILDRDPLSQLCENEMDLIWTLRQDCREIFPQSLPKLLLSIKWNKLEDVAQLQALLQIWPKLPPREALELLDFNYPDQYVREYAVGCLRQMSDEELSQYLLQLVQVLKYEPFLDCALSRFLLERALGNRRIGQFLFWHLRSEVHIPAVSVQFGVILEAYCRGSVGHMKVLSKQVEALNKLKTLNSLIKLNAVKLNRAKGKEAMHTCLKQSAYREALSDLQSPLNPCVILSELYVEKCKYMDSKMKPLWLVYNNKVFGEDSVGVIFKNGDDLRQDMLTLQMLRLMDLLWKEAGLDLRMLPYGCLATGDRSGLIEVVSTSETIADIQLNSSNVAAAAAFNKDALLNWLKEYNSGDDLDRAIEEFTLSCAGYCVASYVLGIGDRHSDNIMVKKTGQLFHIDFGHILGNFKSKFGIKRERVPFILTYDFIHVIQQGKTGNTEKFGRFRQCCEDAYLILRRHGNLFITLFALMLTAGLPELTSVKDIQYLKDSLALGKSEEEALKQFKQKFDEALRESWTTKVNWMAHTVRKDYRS
Chain of PIK3CG (human) (P48736 whole entry, looked up): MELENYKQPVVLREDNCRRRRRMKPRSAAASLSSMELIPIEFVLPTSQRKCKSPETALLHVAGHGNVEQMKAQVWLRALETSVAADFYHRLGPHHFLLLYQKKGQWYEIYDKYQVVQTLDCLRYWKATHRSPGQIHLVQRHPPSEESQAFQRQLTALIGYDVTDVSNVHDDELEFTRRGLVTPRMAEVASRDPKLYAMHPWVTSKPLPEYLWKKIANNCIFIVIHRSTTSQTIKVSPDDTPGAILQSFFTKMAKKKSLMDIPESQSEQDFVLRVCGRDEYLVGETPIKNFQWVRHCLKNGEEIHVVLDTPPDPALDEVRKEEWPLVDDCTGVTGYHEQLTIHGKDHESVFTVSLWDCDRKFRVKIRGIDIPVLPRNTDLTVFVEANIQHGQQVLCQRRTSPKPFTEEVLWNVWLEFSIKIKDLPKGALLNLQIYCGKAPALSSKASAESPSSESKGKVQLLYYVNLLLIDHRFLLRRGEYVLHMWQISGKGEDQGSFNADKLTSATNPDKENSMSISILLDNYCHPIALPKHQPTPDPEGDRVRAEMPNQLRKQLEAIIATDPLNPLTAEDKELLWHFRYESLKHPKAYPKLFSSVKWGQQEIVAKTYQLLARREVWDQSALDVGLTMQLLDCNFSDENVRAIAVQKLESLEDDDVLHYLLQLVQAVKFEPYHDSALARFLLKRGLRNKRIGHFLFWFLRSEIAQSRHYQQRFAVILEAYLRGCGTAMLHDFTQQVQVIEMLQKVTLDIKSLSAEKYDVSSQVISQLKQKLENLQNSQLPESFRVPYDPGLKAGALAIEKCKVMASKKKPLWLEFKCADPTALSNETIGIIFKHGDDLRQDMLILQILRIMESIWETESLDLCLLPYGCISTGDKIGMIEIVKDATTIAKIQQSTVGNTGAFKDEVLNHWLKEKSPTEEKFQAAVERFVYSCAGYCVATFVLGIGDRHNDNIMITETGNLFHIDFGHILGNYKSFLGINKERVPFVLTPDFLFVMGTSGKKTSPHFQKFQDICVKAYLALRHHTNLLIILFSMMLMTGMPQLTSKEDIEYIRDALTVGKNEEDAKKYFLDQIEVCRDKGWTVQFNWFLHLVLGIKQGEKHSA

With `CS(=O)(=O)N1CCC(C(O)c2cc3nc(-c4cccc5[nH]ncc45)nc(N4CCOCC4)c3s2)CC1` (centres undefined), the IC50 (usually the concentration at which inhibition is half-maximal) at PIK3CA (human) was under 1 µM; at PIK3CD (Human) it was over 0.1 µM; at PIK3CG (human) it was under 0.1 µM; against PIK3CB (Human), over 0.1 µM.

In the case of `OCCNc1cc2nc(-c3cccc4[nH]ncc34)nc(N3CCOCC3)c2s1`, the IC50 was under 1 µM on PIK3CA (human), over 0.1 µM against PIK3CD (Human), under 0.1 µM against PIK3CG (human) and over 0.1 µM at PIK3CB (Human).

Regarding `O=C(NOCC1CC1)c1cc2nc(-c3cccc4[nH]ncc34)nc(N3CCOCC3)c2s1`, the concentration for half-maximal inhibition (IC50) against PIK3CA (human) is under 1 µM; at PIK3CD (Human), over 0.1 µM; at PIK3CG (human), under 0.1 µM; against PIK3CB (Human) it was over 0.1 µM.

Turning to `C[C@H](O)CNCc1cc2nc(-c3cccc4[nH]ncc34)nc(N3CCOCC3)c2s1`, the IC50 against PIK3CA (human) is under 1 µM; at PIK3CD (Human), over 0.1 µM; against PIK3CG (human), under 0.1 µM; on PIK3CB (Human) it was over 0.1 µM.

As to `c1cc2cc(-c3nc(N4CCOCC4)c4sc(-c5ccc(N6CCOCC6)nc5)cc4n3)cnc2[nH]1`, the IC50 against PIK3CA (human) was under 1 µM; against PIK3CD (Human), under 0.1 µM; on PIK3CG (human) it was under 0.1 µM; on PIK3CB (Human), under 0.1 µM.

Take `Cc1c(-c2cccc(S(C)(=O)=O)c2)sc2c(N3CCOCC3)nc(-c3cccc4[nH]ncc34)nc12`: the IC50 at PIK3CA (human) was under 1 µM; on PIK3CD (Human), under 0.1 µM; at PIK3CG (human), under 0.1 µM; on PIK3CB (Human), under 0.1 µM.

Take `O=C(NCCN1CCCCC1)c1cc2nc(-c3cccc4[nH]ncc34)nc(N3CCOCC3)c2s1`: the IC50 on PIK3CA (human) was under 1 µM; on PIK3CD (Human), over 0.1 µM; against PIK3CG (human), under 0.1 µM; at PIK3CB (Human), over 0.1 µM.

Regarding `O=C(NCc1cc2nc(-c3cccc4[nH]ncc34)nc(N3CCOCC3)c2s1)N1CCOCC1`, the concentration for half-maximal inhibition (IC50) against PIK3CA (human) was under 1 µM; against PIK3CD (Human), over 0.1 µM; at PIK3CG (human), under 0.1 µM; at PIK3CB (Human), over 0.1 µM.

`CN(C)C(=O)c1cc2nc(-c3cccc4[nH]ncc34)nc(N3CCOCC3)c2s1`: the IC50 was under 1 µM at PIK3CA (human), over 0.1 µM against PIK3CD (Human), under 0.1 µM against PIK3CG (human) and over 0.1 µM on PIK3CB (Human).

With `Nc1nc(-c2cc3nc(-c4cnc5[nH]ccc5c4)nc(N4CCOCC4)c3s2)cs1`, the IC50 at PIK3CA (human) is under 1 µM; against PIK3CD (Human), under 0.1 µM; at PIK3CG (human), under 0.1 µM; at PIK3CB (Human), under 0.1 µM.

Take `OCc1cccc(-c2cc3nc(-c4cccc5[nH]ncc45)nc(N4CCOCC4)c3s2)c1`: the IC50 was under 1 µM against PIK3CA (human), over 0.1 µM against PIK3CD (Human), under 0.1 µM at PIK3CG (human) and under 0.1 µM at PIK3CB (Human).

`CN(Cc1cc2c(N3CCOCC3)nc(-c3cnc4[nH]ccc4c3)nc2s1)S(C)(=O)=O`: the IC50 on PIK3CA (human) was under 1 µM; against PIK3CD (Human) it was under 0.1 µM; at PIK3CG (human), under 0.1 µM; at PIK3CB (Human) it was under 0.1 µM.

In the case of `COc1ccc(NCc2cc3nc(-c4cccc5[nH]ncc45)nc(N4CCOCC4)c3s2)cn1`, the IC50 at PIK3CA (human) is under 1 µM; against PIK3CD (Human) it was over 0.1 µM; against PIK3CG (human), under 0.1 µM; at PIK3CB (Human), over 0.1 µM.

For `C[C@H](O)CNC(=O)c1cccc(-c2cc3nc(-c4cccc5[nH]ncc45)nc(N4CCOCC4)c3s2)c1`, the IC50 against PIK3CA (human) is under 1 µM; against PIK3CD (Human), over 0.1 µM; against PIK3CG (human) it was under 0.1 µM; against PIK3CB (Human), under 0.1 µM.

Turning to `CS(=O)(=O)c1cccc(-c2cc3nc(-c4cnc5[nH]ccc5c4)nc(N4CCOCC4)c3s2)c1`, the half-inhibitory concentration (IC50) is under 1 µM on PIK3CA (human), under 0.1 µM at PIK3CD (Human), under 0.1 µM on PIK3CG (human) and under 0.1 µM on PIK3CB (Human).

On to `CNC(=O)c1cccc(-c2cc3nc(-c4cccc5[nH]ncc45)nc(N4CCOCC4)c3s2)c1`, for which the 50% inhibitory concentration (IC50) is under 1 µM against PIK3CA (human), over 0.1 µM at PIK3CD (Human), under 0.1 µM against PIK3CG (human) and under 0.1 µM at PIK3CB (Human).

With `CS(=O)(=O)c1cccc(C(=O)NCc2cc3nc(-c4cccc5[nH]ncc45)nc(N4CCOCC4)c3s2)c1`, the IC50 is under 1 µM on PIK3CA (human), over 0.1 µM on PIK3CD (Human), under 0.1 µM against PIK3CG (human) and under 0.1 µM on PIK3CB (Human).

Take `CC(C)(NC(=O)c1ccccc1)c1cc2nc(-c3cccc4[nH]ncc34)nc(N3CCOCC3)c2s1`: the half-maximal inhibitory concentration (IC50) was under 1 µM against PIK3CA (human), over 0.1 µM against PIK3CD (Human), under 0.1 µM at PIK3CG (human) and under 0.1 µM against PIK3CB (Human).

`CC(C)(O)c1cc2nc(-c3cccc4[nH]ccc34)nc(N3CCOCC3)c2s1`: the IC50 on PIK3CA (human) was under 1 µM; on PIK3CD (Human), over 0.1 µM; against PIK3CG (human) it was under 0.1 µM; against PIK3CB (Human), under 0.1 µM.

Consider `COC/C=C/c1cc2nc(-c3cccc4[nH]ncc34)nc(N3CCOCC3)c2s1`, for which the IC50 is under 1 µM at PIK3CA (human), over 0.1 µM against PIK3CD (Human), under 0.1 µM against PIK3CG (human) and under 0.1 µM against PIK3CB (Human).

`NCC(=O)Nc1cccc(-c2cc3nc(-c4cccc5[nH]ncc45)nc(N4CCOCC4)c3s2)c1`: the IC50 is under 1 µM at PIK3CA (human), over 0.1 µM against PIK3CD (Human), over 0.1 µM against PIK3CG (human) and under 0.1 µM on PIK3CB (Human).

In the case of `CC(C)(O)c1cc2nc(-c3cnc4[nH]ccc4c3)nc(N3CCOCC3)c2s1`, the IC50 against PIK3CA (human) is under 1 µM; against PIK3CD (Human), over 0.1 µM; against PIK3CG (human), under 0.1 µM; on PIK3CB (Human) it was under 0.1 µM.

For `OC1(c2cc3nc(-c4cccc5[nH]ncc45)nc(N4CCOCC4)c3s2)CCC1`, the IC50 was under 1 µM at PIK3CA (human), over 0.1 µM on PIK3CD (Human), under 0.1 µM against PIK3CG (human) and over 0.1 µM against PIK3CB (Human).

With `CS(=O)(=O)c1cccc(-c2cc3nc(-c4cccc5[nH]ncc45)nc(N4CCOCC4)c3s2)c1`, the IC50 is under 1 µM against PIK3CA (human), over 0.1 µM against PIK3CD (Human), under 0.1 µM against PIK3CG (human) and under 0.1 µM against PIK3CB (Human).

Take `O=C(O)c1cccc(-c2cc3nc(-c4cccc5[nH]ncc45)nc(N4CCOCC4)c3s2)c1`: the IC50 is under 1 µM on PIK3CA (human), over 0.1 µM against PIK3CD (Human), under 0.1 µM against PIK3CG (human) and under 0.1 µM on PIK3CB (Human).

Regarding `c1cc(-c2nc(N3CCOCC3)c3sc(Cn4ccnc4)cc3n2)c2cn[nH]c2c1`, the IC50 is under 1 µM against PIK3CA (human), over 0.1 µM against PIK3CD (Human), under 0.1 µM against PIK3CG (human) and over 0.1 µM against PIK3CB (Human).

Take `CN(Cc1cc2nc(-c3cccc4[nH]ncc34)nc(N3CCOCC3)c2s1)C(=O)c1ccccc1`: the IC50 is under 1 µM on PIK3CA (human), over 0.1 µM against PIK3CD (Human), over 0.1 µM against PIK3CG (human) and over 0.1 µM at PIK3CB (Human).

For the compound `CC(=O)Nc1cccc(-c2cc3nc(-c4cccc5[nH]ncc45)nc(N4CCOCC4)c3s2)c1`, the IC50 was under 1 µM at PIK3CA (human), over 0.1 µM on PIK3CD (Human), under 0.1 µM at PIK3CG (human) and under 0.1 µM against PIK3CB (Human).

For `CCNC(=O)c1cc2nc(-c3cccc4[nH]ncc34)nc(N3CCOCC3)c2s1`, the 50% inhibitory concentration (IC50) against PIK3CA (human) is under 1 µM; against PIK3CD (Human) it was over 0.1 µM; at PIK3CG (human), over 0.1 µM; against PIK3CB (Human) it was over 0.1 µM.

As for `O=S(=O)(Nc1cccc(O)c1)c1cc2nc(-c3cccc4[nH]ncc34)nc(N3CCOCC3)c2s1`, the IC50 is under 1 µM at PIK3CA (human), over 0.1 µM on PIK3CD (Human), under 0.1 µM on PIK3CG (human) and under 0.1 µM at PIK3CB (Human).

For `c1ccc(-c2cc3nc(-c4cccc5[nH]ncc45)nc(N4CCOCC4)c3o2)cc1`, the IC50 was under 1 µM against PIK3CA (human), over 0.1 µM on PIK3CD (Human), over 0.1 µM at PIK3CG (human) and under 0.1 µM on PIK3CB (Human).

`Cc1c(-c2cccc(S(C)(=O)=O)c2)sc2c(N3CCOCC3)nc(-c3cnc4[nH]ccc4c3)nc12`: the IC50 at PIK3CA (human) is under 1 µM; on PIK3CD (Human) it was under 0.1 µM; at PIK3CG (human), under 0.1 µM; on PIK3CB (Human) it was under 0.1 µM.

As for `CC(C)(O)c1cc2nc(-c3cccc4[nH]ncc34)nc(N3CCOCC3)c2s1`, the IC50 against PIK3CA (human) was under 1 µM; against PIK3CD (Human), over 0.1 µM; on PIK3CG (human), under 0.1 µM; at PIK3CB (Human) it was under 0.1 µM.

With `O=S(=O)(NCCN1CCCCC1)c1cc2nc(-c3cccc4[nH]ncc34)nc(N3CCOCC3)c2s1`, the IC50 against PIK3CA (human) was under 1 µM; against PIK3CD (Human), over 0.1 µM; at PIK3CG (human), under 0.1 µM; against PIK3CB (Human), under 0.1 µM.

As for `c1cc(-c2nc(N3CCOCC3)c3sc(-c4cn[nH]c4)cc3n2)c2cn[nH]c2c1`, the IC50 at PIK3CA (human) is under 1 µM; against PIK3CD (Human) it was over 0.1 µM; against PIK3CG (human) it was under 0.1 µM; against PIK3CB (Human), over 0.1 µM.

Regarding `CN(C)Cc1cc2nc(-c3cccc4[nH]ncc34)nc(N3CCOCC3)c2s1`, the IC50 on PIK3CA (human) is under 1 µM; at PIK3CD (Human) it was over 0.1 µM; at PIK3CG (human), under 0.1 µM; at PIK3CB (Human), under 0.1 µM.
